Laboratory results reported in US7879792B2, “Synthetic peptide inhibitors of thrombin and thrombin activation of protease activated receptors 1 and 4” (The Regents of the University of Michigan, priority 2005, dated 2011).
Where two headings read alike, the source gives them in different places. Where a SMILES comes first, the peptide text is derived from it.

Assays:
[1] = stability testing in intestinal perfusate; type: in vitro ADME; conditions: male, Sprague Dawley, rat, intestinal (jejunal) perfusate, pH 6.5, rat
Protocol: Stability testing of the various compounds was performed in buffer, intestinal perfusate, and an intestinal homogenate preparation to assess the potential oral availability of these compounds. Initial studies prepared the tissue for stability studies. The buffer used in stability testing is 10 mM MES (pH 6.5) containing 135 mM NaCl, and 5 mM KCl. To collect intestinal perfusate from rats, male Sprague Dawley rats, 8 to 10 weeks old, weighing 250 to 350 g were fasted 15 to 18 hours with water given ad libitum. Anesthesia was administered by intramuscular injection of pentobarbital/ketamine (40 mg/kg and 80 mg/kg, respectively). The rats were placed on a warming pad under a surgical lamp to maintain body temperature and jejunal intestinal segments were exposed through a midline, abdominal incision. Approximately 20 cm segment of the jejunum (2 to 4 cm distal to the ligament of Treitz) was cannulated and the intestinal segments were perfused with 10 mM MES (pH 6.5) containing 135 mM NaCl, and 5 mM KCl at a flow-rate of 0.5 ml/min at 37° C. using a constant infusion pump (Harvard Apparatus, South Natick, Mass.). The collected perfusate was stored at −80° C. until use for ex vivo stability studies. After collection, the perfused intestinal segments were flushed with ice-cold 0.15 M KCl solution and the animal was euthanized and the jejunal intestinal segment detached. The inner intestinal tissue layers are scraped out and homogenized in MES buffer (pH 6.5) in a ratio of 1 part of intestinal tissue to 5 parts buffer. Total protein content of the perfusate and the homogenate were determined using a Biorad protein assay kit. The intestinal homogenate samples were used immediately or rapidly frozen at −80° C. until stability analysis.
The actual stability testing protocol is as follows: A 0.1 ml aliquot of the synthetic peptide solution (1 mg/ml) was added to 0.9 ml of MES buffer, pH 6.5, intestinal perfusate, or intestinal homogenate at 37° C. Samples were mixed by vortexing and 100 microliter aliquots were removed over a 60 to 90 minute period for analysis of breakdown products. The 100 microliter sample aliquots were diluted 10 fold with water and subjected to solid phase extraction using a Waters Oasis HLB column. Briefly, the columns were preconditioned by passing 1 ml of MeOH and 1 ml of water over the column, and 1 ml of sample was added to the column. The column was washed with 5% methanol:95% water solution to remove proteins and salts, then eluted with 1 ml of 100% methanol. The methanol was removed by vacuum, and the sample was reconstituted in mobile phase for LC/MS/MS analysis.
LC/MS/MS analysis was performed on a HP1100 HPLC (Hewlett Packard) interfaced with a Quattro II MS/MS detector (Waters/Micromass). For the HPLC separation, a 10 μL aliquot of sample in a mobile phase consisting of an equal volume mixture of acetonitrile/water containing 0.5% formic acid was injected onto a 150 mm×2.2 mm, 5 μm C8 column (Higgins Analytical Inc) and developed at a flow rate of 0.2 ml/min for 5 minutes. The MS detector was used in single ion recording mode at a cone voltage of 50 Volts.

[2] = test system: normal human citrated plasma; test: activated partial thromboplastin time (APTT); type: biochemical
Protocol: The influence of the various peptide formulations used in the present invention on established coagulation-based assays was determined. The activated partial thromboplastin time (APTT) is performed by mixing 0.05 ml normal human citrated plasma with 0.05 ml activated partial thromboplastin reagent purchased from Organon Teknika, Research Triangle Park, NC in the absence or presence of a peptide inhibitor. After incubation for 5 min at 37° C., the mixture is recalcified with 0.05 ml of 30 mM calcium chloride and the time to clot formation is measured in an Amelung KC4A instrument (Sigma Chemical Corp, St. Louis, Mo.) (Hasan et al. Thrombosis and Haemostasis. 82, 1182-1187 (1999)). The prothrombin time (PT) is performed by mixing 0.05 ml normal human citrated plasma with 0.05 ml Simplastin (Organon Teknika, Research Triangle Park, NC) followed by incubation for 3 min at 37° C. in the absence or presence of a peptide inhibitor. At the addition of 0.05 ml of 30 mM calcium chloride, the time to clot formation is measured in an KC4A instrument (Sigma Chemical Corp, St. Louis, Mo.) (Hasan et al. Thrombosis and Haemostasis. 82, 1182-1187 (1999)). The thrombin clotting time (TCT) is performed by adding 0.1 ml normal human citrated plasma in the absence or presence of a peptide inhibitor and 0.05 ml of a α-thrombin solution such that the final concentration of the thrombin in the entire mixture was 1 nM. Upon addition of the thrombin, the time to clot formation is measured in an KC4A instrument (Sigma Chemical Corp, St. Louis, Mo.).

Row | SMILES | half-life at 0.1 mg/ml ([1]; 37° C., read-out: t1/2 (min) Intestinal Perfusate) | half-life at 0.1 mg/ml ([1]; read-out: t1/2 in intestinal perfusate (converted)) | peptide concentration with significant prolongation (p<0.05) of the APTT [2]
1 | N=C(N)NCCC[C@@H](N)C(=O)N1[C@H](C(=O)N2CCC[C@H]2C(=O)NCC(=O)N[C@@H](Cc2ccccc2)C(N)=O)C[C@@H]2CCCC[C@@H]21 [rOicPGF, D-Arg-Oic-Pro-Gly-Phe, reference compound] (HELM PEPTIDE1{[dR].[O=C([C@@H]1C[C@@H]2CCCC[C@@H]2N1[*:1])[*:2]].P.G.F.[am]}$$$$V2.0) | 111 min | 120 min | 
2 | Cc1ccc(C[C@H](NC(=O)[C@@H](C)NC(=O)[C@@H]2CCCN2C(=O)[C@@H]2C[C@@H]3CCCC[C@@H]3N2C(=O)[C@H](N)CCCNC(=N)N)C(N)=O)cc1 [rOicPaF(p-Me), D-Arg-Oic-Pro-D-Ala-Phe(p-Me)] (HELM PEPTIDE1{[dR].[O=C([C@@H]1C[C@@H]2CCCC[C@@H]2N1[*:1])[*:2]].P.[dA].[Cc1ccc(C[C@H](N[*:1])C(=O)[*:2])cc1].[am]}$$$$V2.0) |  |  | 1.56 µM
